Test [1] has as its system corn earworm (Helicoverpa zea). Put plainly: Insecticidal test on treated lepidopteran diet, corn earworm. Type of test: in vivo. The following applies: 120 h; second-instar larvae on treated diet, 8 wells; dose of 50 mg/cm^2 [sic] (2000 ppm, 50 μL); dead insects counted 5 days after treatment; read-out: AVG HELIZE 50 (percent control, corn ear worm). As to the method: (§1) The compounds identified in Table 1 were prepared according to the previous methods and were tested against beet armyworm and corn earworm as follows:
(§2) Insecticidal Test for Corn Earworm (Helicoverpa zea) and Beet Armyworm (Spodoptera exigua).
(§3) To prepare test solution, the test compound was formulated at 2000 ppm solution as 4 mg/2 mL of 9 acetone:1 tap water. 50 μL of the 2000 ppm (equivalent to 50 μg/cm^2 dose on diet surface area) test solution was pipetted upon the surface of 1 mL of lepidopteran diet (Southland Multi-Species Lepidopteran Diet) contained in each of eight wells per insect species (one well=1 replication). A second-instar corn earworm and beet armyworm was placed upon the treated diet in each well once the solvent had air-dried. Trays containing the treated diet and larvae were covered and then held in a growth chamber at 25° C., 50-55% RH, and 16 hr light:8 hr dark for 5 days. Observation were conducted 5 days after treatment and infestation. The number of dead insects of 8 per species per treatment was then determined and the results are given in Table 1 as a percent control at a dose of […].
(§4) Keys to the table: Mass spectral data were obtained using liquid chromatography mass spectroscopy (LC-MS). The masses are detected using electrospray ionization (ESI) and reported as Mol Ion (M+H, M−H); AVG LAPHEG 50 refers to activity against beet army worm (Spodoptera exigua) as defined above; AVG HELIZE 50 refers to activity against corn ear worm (Helicoverpa zea) as described above.

The subject of test [2] is beet armyworm (Spodoptera exigua). Put plainly: Insecticidal test on treated lepidopteran diet, beet armyworm. Type of test: in vivo. Particulars: 120 h, second-instar larvae on treated diet, 8 wells, dose of 50 mg/cm^2 [sic] (2000 ppm, 50 μL), dead insects counted 5 days after treatment, read-out: AVG LAPHEG 50 (percent control, beet army worm). On the procedure:
as §1, §2, §3, §4

Each structure is given as a SMILES string.

As for `FC(F)(F)Oc1ccc(Nc2nc(N/N=C/c3ccccc3OC(F)(F)F)nc(N3CCOCC3)n2)cc1` [Compound 45], the pest or weed control at 2000 µg/mL in test [1] worked out at 13%; in test [2], 38%.
As for `COCCNc1nc(N/N=C/c2ccc(OC(F)(F)F)cc2)nc(Nc2ccc(OC(F)(F)F)cc2)n1` [Compound 15], the pest or weed control at 2000 µg/mL in test [1] amounted to 88%; in test [2], 100%.
For `FC(F)C(F)(F)Oc1ccc(Nc2nc(N/N=C/c3ccc(Cl)c(Cl)c3)nc(N3CCOCC3)n2)cc1` [Compound 89] the same measures were 100% and 100%.
For `FC(F)(F)COc1nc(N/N=C/c2ccc(Cl)c(Cl)c2)nc(Nc2ccc(OC(F)(F)F)cc2)n1` [Compound 30], the pest or weed control at 2000 µg/mL in test [1] and in test [2] was 100% throughout.
Take `COCCNc1nc(N/N=C/c2ccc(OC(F)(F)F)cc2)nc(Nc2cccc(C(F)(F)F)c2)n1` [Compound 19]: the pest or weed control at 2000 µg/mL in test [1] stood at 75%; in test [2], 100%.
For `CCOC(=O)CNc1nc(N/N=C/c2ccc(OC(F)(F)F)cc2)nc(Nc2ccc(OC(F)(F)F)cc2)n1` [Compound 26] the same measures were 100% and 50%.
For `FC(F)(F)c1cccc(/C=N/Nc2ncnc(Nc3cccc(C(F)(F)F)c3)n2)c1` [Compound 103] the same measures were 100% and 38%.
For `Fc1ccccc1/C=N/Nc1nc(Nc2ccc(OC(F)(F)F)cc2)nc(OCC(F)(F)F)n1` [Compound 31], the pest or weed control at 2000 µg/mL in test [1] and in test [2] was 100% in each case.
Take `FC(F)C(F)(F)Oc1ccc(/C=N/Nc2nc(Nc3ccc(OC(F)(F)F)cc3)nc(N3CCOCC3)n2)cc1` [Compound 1, (4-Morpholin-4-yl-6-{N′-[4-(1,1,2,2-tetrafluoroethoxy)benzylidene]hydrazino}-1,3,5-triazin-2-yl)-(4-trifluoromethoxyphenyl)amine]: the pest or weed control at 2000 µg/mL in test [1] and in test [2] was 100% in each case.
Consider `Fc1ccc(Nc2nc(NCc3ccc(Cl)nc3)nc(N/N=C/c3ccc(Cl)cc3)n2)cc1C(F)(F)F` [Compound 68], for which the pest or weed control at 2000 µg/mL in test [1] and in test [2] was 100% each time.
Turning to `N#Cc1ccc(/C=N/Nc2nc(NCc3ccc(Cl)nc3)nc(Nc3ccc(OC(F)(F)C(F)F)cc3)n2)cc1` [Compound 96], the pest or weed control at 2000 µg/mL in test [1] and in test [2] was 100% throughout.
`Fc1ccc(Nc2nc(Cl)nc(N/N=C/c3ccc(OC(F)(F)F)cc3)n2)cc1C(F)(F)F` [Compound 88]: the pest or weed control at 2000 µg/mL in test [1] and in test [2] was 100% in each case.
In the case of `Fc1cc(C(F)(F)F)ccc1Nc1nc(N/N=C/c2cccc(OC(F)(F)C(F)F)c2)nc(N2CCOCC2)n1` [Compound 81], the pest or weed control at 2000 µg/mL in test [1] and in test [2] was 100% each time.
As for `FC(F)(F)COc1nc(N/N=C/c2c(Cl)cccc2Cl)nc(Nc2ccc(OC(F)(F)F)cc2)n1` [Compound 35], the pest or weed control at 2000 µg/mL in test [1] and in test [2] was 100% in each case.
On to `COc1ccc(CNc2nc(N/N=C/c3ccc(OC(F)(F)F)cc3)nc(Nc3ccc(F)c(C(F)(F)F)c3)n2)cn1` [Compound 82], for which the pest or weed control at 2000 µg/mL in test [1] and in test [2] was 100% in each case.
Consider `CCOc1nc(N/N=C/c2ccc(F)cc2)nc(Nc2ccc(OC(F)(F)F)cc2)n1` [Compound 11], for which the pest or weed control at 2000 µg/mL in test [1] came to 100%; in test [2], 13%.
For `COCCNc1nc(N/N=C/c2ccc(F)cc2)nc(Nc2ccc(OC(F)(F)F)cc2)n1` [Compound 17], the pest or weed control at 2000 µg/mL in test [1] was found to be 63%; in test [2], 50%.
For `Fc1ccc(Nc2nc(NCc3ccc(Cl)nc3)nc(N/N=C/c3ccc(OC(F)(F)F)cc3)n2)cc1C(F)(F)F` [Compound 2, N-(6-Chloropyridin-3-ylmethyl)-N′-(4-fluoro-3-trifluoromethylphenyl)-6-{N′-[1-(4-trifluoromethoxyphenyl)-methylidene]-hydrazino}-[1,3,5]triazine-2,4-diamine] the same measures were 100% and 100%.
On the same counts, the results for `Fc1ccccc1/C=N/Nc1nc(NCc2ccc(Cl)nc2)nc(Nc2ccc(F)c(C(F)(F)F)c2)n1` [Compound 69] are 100% and 100%.
Regarding `FC(F)(F)Oc1ccc(Nc2nc(N/N=C/c3cccc(Br)c3)nc(N3CCOCC3)n2)cc1` [Compound 38], the pest or weed control at 2000 µg/mL is 100% in test [1] and 0% in test [2].
Take `FC(F)(F)Oc1ccc(/C=N/Nc2ncnc(Nc3cccc(C(F)(F)F)c3)n2)cc1` [Compound 101]: the pest or weed control at 2000 µg/mL in test [1] and in test [2] was 100% throughout.
`Fc1ccc(Nc2ncnc(N/N=C/c3cccc(C(F)(F)F)c3)n2)cc1C(F)(F)F` [Compound 102]: the pest or weed control at 2000 µg/mL in test [1] and in test [2] was 100% each time.
With `Fc1cc(/C=N/Nc2nc(Nc3ccc(OC(F)(F)F)cc3)nc(N3CCOCC3)n2)ccc1Cl` [Compound 42], the figures for the pest or weed control at 2000 µg/mL in test [1] and in test [2] were 100% and 88%, respectively.
With `FC(F)C(F)(F)Oc1ccc(/C=N/Nc2ncnc(Nc3cccc(C(F)(F)F)c3)n2)cc1` [Compound 100], the pest or weed control at 2000 µg/mL in test [1] and in test [2] was 100% in each case.
With `Cc1cnc(CNc2nc(N/N=C/c3ccc(OC(F)(F)F)cc3)nc(Nc3ccc(F)c(C(F)(F)F)c3)n2)cn1` [Compound 57], the pest or weed control at 2000 µg/mL in test [1] and in test [2] was 100% throughout.
Turning to `CCOCCNc1nc(N/N=C/c2ccc(OC(F)(F)F)cc2)nc(Nc2ccc(OC(F)(F)F)cc2)n1` [Compound 25], the pest or weed control at 2000 µg/mL in test [1] and in test [2] was 100% throughout.
Turning to `FC(F)(F)Oc1ccc(Nc2nc(N/N=C/c3c(Cl)cccc3Cl)nc(N3CCOCC3)n2)cc1` [Compound 44], the pest or weed control at 2000 µg/mL in test [1] was 0%; in test [2] it was 13%.
As to `C/C(=N\Nc1nc(Nc2ccc(OC(F)(F)F)cc2)nc(N2CCOCC2)n1)c1cccc(C#N)c1` [Compound 5], the pest or weed control at 2000 µg/mL in test [1] and in test [2] was 100% each time.
Take `CCCOc1ccc(Nc2nc(N/N=C/c3cccc(OC(F)(F)C(F)F)c3)nc(N3CCOCC3)n2)cc1` [Compound 79]: the values for the pest or weed control at 2000 µg/mL in test [1] and in test [2] were 100% and 13%, respectively.
As to `Fc1ccc(Nc2nc(NCc3ccc(Cl)nc3)nc(N/N=C/c3cc(Cl)cc(Cl)c3)n2)cc1C(F)(F)F` [Compound 67], the pest or weed control at 2000 µg/mL in test [1] and in test [2] was 100% throughout.
On to `CC1CN(c2nc(N/N=C/c3cc(F)cc(C(F)(F)F)c3)nc(Nc3ccc(F)c(C(F)(F)F)c3)n2)CC(C)O1` (stereo not drawn) [Compound 47], for which the pest or weed control at 2000 µg/mL amounted to 75% in test [1] and 100% in test [2].
`COCCN(C)c1nc(N/N=C/c2ccc(OC(F)(F)F)cc2)nc(Nc2ccc(OC(F)(F)F)cc2)n1` [Compound 22]: the pest or weed control at 2000 µg/mL in test [1] was determined as 13%; in test [2], 50%.
In the case of `FC(F)C(F)(F)Oc1cccc(Nc2nc(NCc3ccc(Cl)nc3)nc(N/N=C/c3ccc(Cl)cc3)n2)c1` [Compound 86], the pest or weed control at 2000 µg/mL in test [1] and in test [2] was 100% in each case.
Turning to `FC(F)(F)Oc1ccc(/C=N/Nc2nc(Nc3ccc(OC(F)(F)F)cc3)nc(N3CCOCC3)n2)cc1` [Compound 4], the pest or weed control at 2000 µg/mL in test [1] and in test [2] was 100% throughout.
Take `Fc1ccc(/C=N/Nc2nc(NCc3ccc(Cl)nc3)nc(Nc3ccc(F)c(C(F)(F)F)c3)n2)cc1` [Compound 76]: the pest or weed control at 2000 µg/mL in test [1] and in test [2] was 100% in each case.
For the compound `FC(F)(F)Oc1ccc(Nc2nc(N/N=C/c3ccc(Cl)c(Cl)c3)nc(N3CCOCC3)n2)cc1` [Compound 39], the pest or weed control at 2000 µg/mL in test [1] was 100%; in test [2] it was 88%.
Take `FC(F)C(F)(F)Oc1cccc(/C=N/Nc2nc(Nc3ccc(OC(F)(F)F)cc3)nc(N3CCOCC3)n2)c1` [Compound 61]: the pest or weed control at 2000 µg/mL in test [1] and in test [2] was 100% throughout.
Consider `Fc1cc(/C=N/Nc2nc(Nc3ccc(OC(F)(F)F)cc3)nc(OCC(F)(F)F)n2)ccc1Cl` [Compound 33], for which the pest or weed control at 2000 µg/mL in test [1] and in test [2] was 100% each time.
As for `Fc1ccc(Nc2nc(NCc3ccc(Cl)nc3)nc(N/N=C/c3cccc(C(F)(F)F)c3)n2)cc1C(F)(F)F` [Compound 74], the pest or weed control at 2000 µg/mL in test [1] and in test [2] was 100% each time.

The record behind these values is US8188273B2, “Insecticidal (1,3,5)-triazinyl phenyl hydrazones” (Dow AgroSciences, LLC., priority 2007, dated 2012).
